Data published in patent US12509460B2 (Skyhawk Therapeutics, Inc., priority 2019, dated 2025).

How the values were obtained:
[1] = Quantitative splicing assay (HTT), qPCR; type: cell-based, human; details: Homo sapiens, GM04724, 24 h, GM04724 lymphoblasts, qPCR, read-out: HTT Splicing: E49-50 EC50
Method: Example A9: Quantitative Splicing Assay (HTT)
GM04724 (CAG 70/20) Huntington's disease patient lymphoblasts (Coriell) are plated in 96-well v-bottom plates at 50,000 cells/well. Immediately after plating, cells are dosed with compound for 24 h at concentrations ranging from 2.5 uM to 0.15 nM (0.1% DMSO). Treated cells are lysed and cDNA synthesized using the Fast Advanced Cells-to-Ct kit (Thermofisher A35378) according to the manufacturer's instructions. 2 uL of each cDNA are used in qPCR reactions to confirm the compound-induced inclusion of a cryptic exon within intron 49 of the Huntingtin (HTT) transcripts. The qPCR reactions are prepared in 384-well plates in 10 uL volume, using TagMan™ Fast Advanced Master Mix [ThermoFisher, 4444965] with primers and probes shown in the table below. Reactions are run in a Quant studio 6 qPCR instrument with default settings.

[2] = system: mHTT protein in GM04724 (CAG 70/20) Huntington's disease patient lymphoblast cells; experiment: mHTT protein assay, 2B7-MW1 assay via Mesoscale Discovery (MSD); type: cell-based, human; details: GM04724 Huntington's disease patient lymphoblasts
How it was run: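 Patient lymphoblasts treated 48 h with compound from 10 μM to 0.6 nM. mHTT quantified by MSD 2B7-MW1 immunoassay, whose signal depends on polyQ expansion and HTT size. Viability measured on a replicate plate by CellTiter Glo.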

[3] = system: SMN FL and SMN Δ7 in spinal muscular atrophy (SMA) patient fibroblasts (GM03813, Coriell); experiment: Quantitative splicing assay (SMN), qPCR; type: cell-based, human; details: Homo sapiens, Fibroblast, 24 h, SMA patient fibroblasts GM03813, 24 h, qPCR; read-out: SMN2 Splicing FL EC50
Method: Spinal muscular atrophy (SMA) patient fibroblasts (GM03813, Coriell) are plated in 96-well plates at 50,000 cells/well. […] Treated cells are lysed and cDNA synthesized using the Fast Advanced Cells-to-Ct kit (Thermofisher A35378) according to the manufacturer's instructions. 2 μL of each cDNA are used in qPCR reactions. […] Reactions are run in a Quant Studio 6 qPCR instrument with default settings.

[4] = system: SMN protein in spinal muscular atrophy (SMA) patient fibroblasts (GM03813, Coriell); experiment: SMN protein assay, Mesoscale Discovery (MSD); type: cell-based, human; details: SMA patient fibroblasts GM03813, 48 hours, MSD; read-out: SMN2 protein EC50
How it was run: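 SMA patient fibroblasts (GM03813) seeded at 7000 cells/well and exposed to compound at 2.5 μM to 0.6 nM for 48 hours. Lysates assayed for SMN by MSD immunoassay, with absolute SMN amount calculated from a per-plate SMN standard curve (1 μg/ml to 19.5 pg/ml).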

[5] = system: MDR1 (P-gp); experiment: Blood-brain-barrier (BBB) penetration potential via MDCK-MDR1 permeability assay; details: dog; for Papp A→B at 120 min, 5 μM: MDCK-MDR1, pH 7.4, MDCK-MDR1: Papp A-B, A-B direction; for Papp B→A at 120 min, 5 μM: MDCK-MDR1, pH 7.4, MDCK-MDR1: Papp B-A, B-A direction
[6] = system: MDR1-MDCK cell monolayers; experiment: as above; details: for MDCK-MDR1: % Recov A-B: A-B direction; for MDCK-MDR1: % Recov B-A: B-A direction
[7] = system: MDR1; experiment: as above; details: dog, MDCK-MDR1, pH 7.4, MDCK-MDR1: Efflux, efflux ratio

Row | Structure (SMILES) | EC50 [1] | EC50 [2] | EC50 [3] | EC50 [4] | Papp A→B at 120 min, 5 μM [5] | Papp B→A at 120 min, 5 μM [5] | MDCK-MDR1: % Recov A-B [6] | MDCK-MDR1: % Recov B-A [6] | efflux ratio at 120 min, 5 μM [7]
1 | CN(c1ccc(-c2ccc(-c3cc[nH]n3)cc2O)nn1)[C@@H]1C[C@H]2CC[C@H](N2)[C@@H]1F (single isomer, unassigned) [Compound 33A] | 16 to 50 nM | 16 to 50 nM | 51 to 100 nM | 16 to 50 nM | 1.33 ×10⁻⁶ cm/s | 40.7 ×10⁻⁶ cm/s | 95% | 105% | 31
2 | CN(c1ccc(-c2ccc(-c3cc[nH]n3)cc2O)nn1)[C@H]1C[C@@H]2CC[C@@H](N2)[C@H]1F (single isomer, unassigned) [Compound 33B] | 0.01 to 15 nM | 0.01 to 15 nM | 16 to 50 nM | 0.01 to 15 nM | 1.75 ×10⁻⁶ cm/s | 53 ×10⁻⁶ cm/s | 87% | 82% | 30
3 | CN(c1ccc(-c2ccc(-c3ccn(C)n3)cc2O)nn1)[C@@H]1C[C@H]2CC[C@H](N2)[C@@H]1F (single isomer, unassigned) [Compound 36A] | 16 to 50 nM | 16 to 50 nM | 16 to 50 nM | 0.01 to 15 nM | 3.68 ×10⁻⁶ cm/s | 38.6 ×10⁻⁶ cm/s | 68% | 82% | 10
4 | CN(c1ccc(-c2ccc(-c3ccn(C)n3)cc2O)nn1)[C@H]1C[C@@H]2CC[C@@H](N2)[C@H]1F (single isomer, unassigned) [Compound 36B] | 0.01 to 15 nM | 0.01 to 15 nM | 0.01 to 15 nM | 0.01 to 15 nM | 5.87 ×10⁻⁶ cm/s | 41.8 ×10⁻⁶ cm/s | 72% | 79% | 7
5 | CN(c1ccc(-c2ccc(-n3cnc(Cl)c3)cc2O)nn1)C1CC2CC(F)(F)C(C1)N2 (single isomer, unassigned) [Compound 37A] | 0.01 to 15 nM | 16 to 50 nM | 16 to 50 nM | 16 to 50 nM | 17.3 ×10⁻⁶ cm/s | 34.4 ×10⁻⁶ cm/s | 52% | 69% | 2
6 | CN(c1ccc(-c2ccc(-c3cn[nH]c3)cc2O)nn1)[C@@H]1C[C@H]2CC[C@H](N2)[C@@H]1F (single isomer, unassigned) [Compound 42A] | 0.01 to 15 nM | 0.01 to 15 nM | 0.01 to 15 nM | 0.01 to 15 nM | 0.86 ×10⁻⁶ cm/s | 36.8 ×10⁻⁶ cm/s | 87% | 91% | 43
7 | CN(c1ccc(-c2ccc(-c3cn[nH]c3)cc2O)nn1)[C@H]1C[C@@H]2CC[C@@H](N2)[C@H]1F (single isomer, unassigned) [Compound 42B] | 0.01 to 15 nM | 0.01 to 15 nM | 0.01 to 15 nM | 0.01 to 15 nM | 0.71 ×10⁻⁶ cm/s | 27.7 ×10⁻⁶ cm/s | 78% | 73% | 39
8 | CN(c1ccc(-c2cc3c(=O)n(C)ccc3s2)nn1)[C@H]1C[C@@H]2CC[C@@H](N2)[C@H]1F (single isomer, unassigned) [Compound 68B] | 51 to 100 nM | 101 to 500 nM | 51 to 100 nM | 16 to 50 nM | 0.4 ×10⁻⁶ cm/s | 44.7 ×10⁻⁶ cm/s | 92% | 91% | 113
9 | CN(c1ccc(-c2cc3oc(=O)n(C)c3cc2O)nn1)[C@@H]1C[C@H]2CC[C@H](N2)[C@@H]1F (single isomer, unassigned) [Compound 79A] | 16 to 50 nM | 0.01 to 15 nM | 16 to 50 nM | 0.01 to 15 nM | 2.51 ×10⁻⁶ cm/s | 34.9 ×10⁻⁶ cm/s | 89% | 99% | 14
10 | CN(c1ccc(-c2cc3ccncc3cc2O)nn1)[C@@H]1C[C@H]2CC[C@H](N2)[C@@H]1F (single isomer, unassigned) [Compound 87A] | 51 to 100 nM | 51 to 100 nM | 101 to 500 nM | 0.01 to 15 nM | 5.33 ×10⁻⁶ cm/s | 43.1 ×10⁻⁶ cm/s | 59% | 79% | 8
11 | CN(c1ccc(-c2cc3ccncc3cc2O)nn1)[C@H]1C[C@@H]2CC[C@@H](N2)[C@H]1F (single isomer, unassigned) [Compound 87B] | 0.01 to 15 nM | 0.01 to 15 nM | 0.01 to 15 nM | 0.01 to 15 nM | 3.3 ×10⁻⁶ cm/s | 28.7 ×10⁻⁶ cm/s | 70% | 88% | 9
12 | CN(c1ccc(-c2cc(F)c(-c3ccn(C)c(=O)c3)cc2O)nn1)[C@@H]1C[C@H]2CC[C@H](N2)[C@@H]1F [Compound 1A, 4-(2-fluoro-4-(6-(((1S,2S,3R,5R)-2-fluoro-8-azabicyclo[3.2.1]octan-3-yl)(methyl)amino)pyridazin-3-yl)-5-hydroxyphenyl)-1-methylpyridin-2(1H)-one] | 0.01 to 15 nM | 0.01 to 15 nM | 0.01 to 15 nM | 0.01 to 15 nM | 0.61 ×10⁻⁶ cm/s | 49.3 ×10⁻⁶ cm/s | 83% | 88% | 81
13 | CN(c1ccc(-c2cc(F)c(-c3ccn(C)c(=O)c3)cc2O)nn1)[C@H]1C[C@@H]2CC[C@@H](N2)[C@H]1F [Compound 1B, 4-(2-fluoro-4-(6-(((1R,2R,3S,5S)-2-fluoro-8-azabicyclo[3.2.1]octan-3-yl)(methyl)amino)pyridazin-3-yl)-5-hydroxyphenyl)-1-methylpyridin-2(1H)-one] | 0.01 to 15 nM | 0.01 to 15 nM | 0.01 to 15 nM | 0.01 to 15 nM | 0.49 ×10⁻⁶ cm/s | 40.4 ×10⁻⁶ cm/s | 97% | 98% | 83
14 | CN(c1ccc(-c2ccc(-n3ccnc3)cc2O)nn1)[C@@H]1C[C@H]2CC[C@H](N2)[C@@H]1F [Compound 4A, 2-(6-(((1S,2S,3R,5R)-2-fluoro-8-azabicyclo[3.2.1]octan-3-yl)(methyl)amino)pyridazin-3-yl)-5-(1H-imidazol-1-yl)phenol] | 16 to 50 nM | 16 to 50 nM | 51 to 100 nM | 0.01 to 15 nM | 2.75 ×10⁻⁶ cm/s | 44.8 ×10⁻⁶ cm/s | 86% | 73% | 16
15 | CN(c1ccc(-c2ccc(-n3ccnc3)cc2O)nn1)[C@H]1C[C@@H]2CC[C@@H](N2)[C@H]1F [Compound 4B, 2-(6-(((1R,2R,3S,5S)-2-fluoro-8-azabicyclo[3.2.1]octan-3-yl)(methyl)amino)pyridazin-3-yl)-5-(1H-imidazol-1-yl)phenol] | 0.01 to 15 nM | 0.01 to 15 nM | 0.01 to 15 nM | 0.01 to 15 nM | 2.82 ×10⁻⁶ cm/s | 49.7 ×10⁻⁶ cm/s | 87% | 85% | 18
16 | CN(c1ccc(-c2ccc(-n3nccn3)cc2O)nn1)[C@@H]1C[C@H]2CCC[C@H](N2)[C@@H]1F [Compound 5A, 2-(6-(((1S,2S,3R,5R)-2-fluoro-9-azabicyclo[3.3.1]nonan-3-yl)(methyl)amino)pyridazin-3-yl)-5-(2H-1,2,3-triazol-2-yl)phenol] | 0.01 to 15 nM | 0.01 to 15 nM | 16 to 50 nM | 0.01 to 15 nM | 4.85 ×10⁻⁶ cm/s | 20.1 ×10⁻⁶ cm/s | 29% | 58% | 4
